From ChEMBL document CHEMBL5465560, “Selectivity Literature for EUbOPEN Chemogenomic Library” (2024)

Key:
[1] = target: Myosin light chain kinase, smooth muscle (Homo sapiens, UniProt Q15746); assay: Selectivity interaction (KinomeScan (DiscoverX)) EUB0000229b MYLK; details: at 10 µM
[2] = target: Macrophage colony-stimulating factor 1 receptor (Homo sapiens) (UniProt P07333); assay: Selectivity interaction (Kinase panel (Invitrogen)) EUB0000639a CSF1R; details: at 200 nM
[3] = target: Protein-tyrosine kinase 2-beta (Homo sapiens) (UniProt Q14289); assay: Selectivity interaction (ActivX KiNativ screen (kinase selectivity in THP-1 cell lysates)) EUB0000639a PTK2B; assay type: subcellular; details: lysate, at 0.2 µM
[4] = target: T1, Casein kinase I isoform alpha-like (Homo sapiens) (UniProt Q8N752); details: at 10 µM
T1 sequence (whole entry): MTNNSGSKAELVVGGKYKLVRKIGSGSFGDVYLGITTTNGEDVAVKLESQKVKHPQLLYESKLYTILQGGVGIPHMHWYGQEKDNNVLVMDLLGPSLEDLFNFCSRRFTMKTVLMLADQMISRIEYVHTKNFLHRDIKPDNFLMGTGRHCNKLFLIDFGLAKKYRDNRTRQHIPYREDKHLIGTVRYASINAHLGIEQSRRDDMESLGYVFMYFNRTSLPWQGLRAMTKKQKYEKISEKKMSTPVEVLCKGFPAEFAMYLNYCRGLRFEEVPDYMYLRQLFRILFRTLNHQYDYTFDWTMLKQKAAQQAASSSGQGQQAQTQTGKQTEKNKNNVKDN

[5] = target: T2, Homeodomain-interacting protein kinase 4 (Homo sapiens) (UniProt Q8NE63); assay: Selectivity interaction (KinomeScan (DiscoverX)) EUB0000595a HIPK4; details: at 10 µM
T2 sequence (whole entry): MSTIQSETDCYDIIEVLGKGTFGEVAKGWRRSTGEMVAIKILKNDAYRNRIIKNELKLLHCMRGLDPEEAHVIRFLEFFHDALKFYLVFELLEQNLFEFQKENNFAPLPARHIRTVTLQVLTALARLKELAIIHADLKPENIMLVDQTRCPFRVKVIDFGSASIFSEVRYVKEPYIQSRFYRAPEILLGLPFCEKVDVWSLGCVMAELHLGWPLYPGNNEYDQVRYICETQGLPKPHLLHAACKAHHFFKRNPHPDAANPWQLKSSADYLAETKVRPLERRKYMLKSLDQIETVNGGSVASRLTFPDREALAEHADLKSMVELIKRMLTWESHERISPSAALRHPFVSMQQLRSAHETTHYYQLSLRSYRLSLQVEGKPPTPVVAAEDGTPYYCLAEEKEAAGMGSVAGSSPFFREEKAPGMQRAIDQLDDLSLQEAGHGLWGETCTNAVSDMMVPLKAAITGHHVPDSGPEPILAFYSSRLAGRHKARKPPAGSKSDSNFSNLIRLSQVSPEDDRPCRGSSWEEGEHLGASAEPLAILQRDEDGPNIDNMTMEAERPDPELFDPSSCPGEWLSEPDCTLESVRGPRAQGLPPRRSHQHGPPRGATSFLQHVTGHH

[6] = target: Phosphatidylinositol 4-kinase beta (Homo sapiens, UniProt Q9UBF8); assay: Selectivity interaction (Ambit KINOMEscan and KiNATiv profiling in Jurkat cells) EUB0000090b PI4KB; assay type: cell-based; details: at 1 µM
[7] = target: T3, Serine/threonine-protein kinase NLK (Homo sapiens) (UniProt Q9UBE8); assay: Selectivity interaction (KinomeScan (DiscoverX)) EUB0000045b NLK
T3 sequence (whole entry): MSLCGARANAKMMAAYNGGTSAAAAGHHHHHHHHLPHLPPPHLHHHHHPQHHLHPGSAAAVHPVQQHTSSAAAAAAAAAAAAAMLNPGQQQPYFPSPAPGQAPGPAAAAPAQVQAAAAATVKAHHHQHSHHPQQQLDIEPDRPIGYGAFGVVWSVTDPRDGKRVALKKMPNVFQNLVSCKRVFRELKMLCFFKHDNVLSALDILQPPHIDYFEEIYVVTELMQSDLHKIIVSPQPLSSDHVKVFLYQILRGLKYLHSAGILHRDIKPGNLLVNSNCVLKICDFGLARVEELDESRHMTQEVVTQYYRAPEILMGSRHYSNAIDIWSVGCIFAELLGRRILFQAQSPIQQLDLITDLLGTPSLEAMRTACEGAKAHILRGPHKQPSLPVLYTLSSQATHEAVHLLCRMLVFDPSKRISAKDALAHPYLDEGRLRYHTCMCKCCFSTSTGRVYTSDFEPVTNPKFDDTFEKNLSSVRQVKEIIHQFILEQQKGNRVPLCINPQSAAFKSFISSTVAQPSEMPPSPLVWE

[8] = target: Ribosomal protein S6 kinase alpha-4 (Homo sapiens) (UniProt O75676); assay: Selectivity interaction (KinomeScan (DiscoverX)) EUB0000618a RPS6KA4; details: at 10 µM
[9] = target: Homeodomain-interacting protein kinase 1 (Homo sapiens, UniProt Q86Z02); assay: Selectivity interaction (Upstate Kinase Profiler service (Millipore)) EUB0000056c HIPK1; details: at 1 µM
[10] = target: T4, 3-phosphoinositide-dependent protein kinase 1 (Homo sapiens) (UniProt O15530); assay: Selectivity interaction (KinomeScan (DiscoverX)) EUB0000655a PDPK1; details: at 10 µM
T4 sequence (whole entry): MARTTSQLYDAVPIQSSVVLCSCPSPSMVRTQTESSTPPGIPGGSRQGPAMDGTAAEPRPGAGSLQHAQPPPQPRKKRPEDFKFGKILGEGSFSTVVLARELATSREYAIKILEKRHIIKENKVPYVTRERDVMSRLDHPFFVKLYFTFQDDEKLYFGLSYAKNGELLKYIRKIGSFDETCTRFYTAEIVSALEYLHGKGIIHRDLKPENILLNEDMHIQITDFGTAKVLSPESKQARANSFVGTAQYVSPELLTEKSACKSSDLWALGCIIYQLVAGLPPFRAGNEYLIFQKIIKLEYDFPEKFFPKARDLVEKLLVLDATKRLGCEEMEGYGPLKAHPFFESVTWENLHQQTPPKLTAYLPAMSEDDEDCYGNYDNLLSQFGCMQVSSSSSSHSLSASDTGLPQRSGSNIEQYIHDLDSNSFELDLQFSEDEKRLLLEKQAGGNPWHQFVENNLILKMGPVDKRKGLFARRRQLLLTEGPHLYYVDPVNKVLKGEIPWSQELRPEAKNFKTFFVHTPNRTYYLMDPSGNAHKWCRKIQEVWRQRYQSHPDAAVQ

Chain of Homeodomain-interacting protein kinase 1 (Q86Z02 whole entry, looked up): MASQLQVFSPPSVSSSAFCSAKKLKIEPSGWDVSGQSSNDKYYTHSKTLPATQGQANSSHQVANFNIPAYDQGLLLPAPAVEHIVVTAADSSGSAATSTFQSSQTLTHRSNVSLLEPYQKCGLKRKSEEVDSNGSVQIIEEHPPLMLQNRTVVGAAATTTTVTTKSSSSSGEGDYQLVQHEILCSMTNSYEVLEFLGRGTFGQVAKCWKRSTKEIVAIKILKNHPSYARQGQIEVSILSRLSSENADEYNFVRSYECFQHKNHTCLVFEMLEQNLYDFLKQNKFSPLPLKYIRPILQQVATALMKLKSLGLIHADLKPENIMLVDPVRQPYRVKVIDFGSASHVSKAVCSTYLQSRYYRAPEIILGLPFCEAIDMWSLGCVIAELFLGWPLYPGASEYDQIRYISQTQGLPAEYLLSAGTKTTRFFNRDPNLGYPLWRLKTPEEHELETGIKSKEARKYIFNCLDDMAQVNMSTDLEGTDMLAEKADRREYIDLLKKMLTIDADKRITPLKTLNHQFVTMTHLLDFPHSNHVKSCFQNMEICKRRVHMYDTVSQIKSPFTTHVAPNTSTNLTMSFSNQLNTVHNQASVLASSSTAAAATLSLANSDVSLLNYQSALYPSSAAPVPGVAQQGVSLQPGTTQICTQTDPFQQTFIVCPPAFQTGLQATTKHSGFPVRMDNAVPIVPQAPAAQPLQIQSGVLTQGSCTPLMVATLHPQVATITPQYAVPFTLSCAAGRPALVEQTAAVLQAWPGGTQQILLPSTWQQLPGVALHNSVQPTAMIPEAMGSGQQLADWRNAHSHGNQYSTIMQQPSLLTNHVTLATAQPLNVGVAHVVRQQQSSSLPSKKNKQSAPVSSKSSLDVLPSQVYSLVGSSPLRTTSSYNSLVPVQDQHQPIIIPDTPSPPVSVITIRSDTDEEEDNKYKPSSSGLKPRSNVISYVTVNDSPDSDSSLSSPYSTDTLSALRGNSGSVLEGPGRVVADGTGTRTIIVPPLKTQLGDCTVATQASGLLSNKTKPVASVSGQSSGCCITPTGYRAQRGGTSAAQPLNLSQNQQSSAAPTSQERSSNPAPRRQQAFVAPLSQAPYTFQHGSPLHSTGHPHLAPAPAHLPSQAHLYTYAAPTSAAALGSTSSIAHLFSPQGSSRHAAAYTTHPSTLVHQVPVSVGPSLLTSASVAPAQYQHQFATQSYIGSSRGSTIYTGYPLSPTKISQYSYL
Chain of Protein-tyrosine kinase 2-beta (Homo sapiens) (Q14289 whole entry, looked up, canonical isoform): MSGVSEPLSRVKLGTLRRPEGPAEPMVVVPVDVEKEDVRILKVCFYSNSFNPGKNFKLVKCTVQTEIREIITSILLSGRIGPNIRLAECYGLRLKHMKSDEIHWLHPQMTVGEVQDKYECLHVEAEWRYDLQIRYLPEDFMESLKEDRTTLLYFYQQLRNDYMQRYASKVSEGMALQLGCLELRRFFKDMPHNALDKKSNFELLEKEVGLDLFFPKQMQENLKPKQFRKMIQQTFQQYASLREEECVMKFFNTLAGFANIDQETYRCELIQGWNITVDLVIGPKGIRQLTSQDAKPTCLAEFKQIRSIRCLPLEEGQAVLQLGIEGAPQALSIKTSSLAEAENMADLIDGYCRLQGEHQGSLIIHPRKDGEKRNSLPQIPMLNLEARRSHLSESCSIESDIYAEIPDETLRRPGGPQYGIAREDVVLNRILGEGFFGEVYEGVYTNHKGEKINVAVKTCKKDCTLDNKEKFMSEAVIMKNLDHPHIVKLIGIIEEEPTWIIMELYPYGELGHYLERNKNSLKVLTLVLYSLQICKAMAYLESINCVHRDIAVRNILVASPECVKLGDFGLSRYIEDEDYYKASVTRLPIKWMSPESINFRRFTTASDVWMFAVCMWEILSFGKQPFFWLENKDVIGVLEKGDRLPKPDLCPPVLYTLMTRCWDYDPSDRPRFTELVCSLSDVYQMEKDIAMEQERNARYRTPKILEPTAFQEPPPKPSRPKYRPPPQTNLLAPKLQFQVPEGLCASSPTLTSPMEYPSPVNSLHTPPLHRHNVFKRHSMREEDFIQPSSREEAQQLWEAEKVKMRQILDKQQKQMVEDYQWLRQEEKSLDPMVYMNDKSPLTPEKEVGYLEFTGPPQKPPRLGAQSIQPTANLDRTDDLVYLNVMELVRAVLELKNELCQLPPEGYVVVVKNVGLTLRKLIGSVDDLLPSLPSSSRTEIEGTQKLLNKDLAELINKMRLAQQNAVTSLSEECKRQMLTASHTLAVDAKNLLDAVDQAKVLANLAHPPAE
Chain of Phosphatidylinositol 4-kinase beta (Q9UBF8 2-816 limits assumed): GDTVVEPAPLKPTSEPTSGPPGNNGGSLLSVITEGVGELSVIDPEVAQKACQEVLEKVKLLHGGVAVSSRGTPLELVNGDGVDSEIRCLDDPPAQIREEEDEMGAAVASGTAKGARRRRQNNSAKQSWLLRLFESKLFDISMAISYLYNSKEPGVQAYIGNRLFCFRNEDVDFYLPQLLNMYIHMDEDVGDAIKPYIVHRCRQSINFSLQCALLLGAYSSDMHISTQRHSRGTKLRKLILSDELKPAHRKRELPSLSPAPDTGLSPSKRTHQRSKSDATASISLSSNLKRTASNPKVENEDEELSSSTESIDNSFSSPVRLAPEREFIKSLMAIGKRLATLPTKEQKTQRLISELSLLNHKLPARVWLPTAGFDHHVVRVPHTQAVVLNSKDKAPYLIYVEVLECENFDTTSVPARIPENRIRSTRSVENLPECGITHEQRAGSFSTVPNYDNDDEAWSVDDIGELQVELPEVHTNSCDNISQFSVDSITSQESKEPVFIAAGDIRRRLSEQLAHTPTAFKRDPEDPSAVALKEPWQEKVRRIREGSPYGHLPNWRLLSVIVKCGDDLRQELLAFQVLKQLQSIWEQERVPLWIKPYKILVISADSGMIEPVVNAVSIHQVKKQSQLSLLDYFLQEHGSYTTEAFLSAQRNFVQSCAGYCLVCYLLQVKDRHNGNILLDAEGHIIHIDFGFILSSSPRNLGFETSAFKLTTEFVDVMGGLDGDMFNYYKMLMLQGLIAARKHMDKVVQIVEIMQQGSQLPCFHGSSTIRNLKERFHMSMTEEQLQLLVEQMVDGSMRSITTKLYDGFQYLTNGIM
Chain of Macrophage colony-stimulating factor 1 receptor (Homo sapiens) (P07333 whole entry): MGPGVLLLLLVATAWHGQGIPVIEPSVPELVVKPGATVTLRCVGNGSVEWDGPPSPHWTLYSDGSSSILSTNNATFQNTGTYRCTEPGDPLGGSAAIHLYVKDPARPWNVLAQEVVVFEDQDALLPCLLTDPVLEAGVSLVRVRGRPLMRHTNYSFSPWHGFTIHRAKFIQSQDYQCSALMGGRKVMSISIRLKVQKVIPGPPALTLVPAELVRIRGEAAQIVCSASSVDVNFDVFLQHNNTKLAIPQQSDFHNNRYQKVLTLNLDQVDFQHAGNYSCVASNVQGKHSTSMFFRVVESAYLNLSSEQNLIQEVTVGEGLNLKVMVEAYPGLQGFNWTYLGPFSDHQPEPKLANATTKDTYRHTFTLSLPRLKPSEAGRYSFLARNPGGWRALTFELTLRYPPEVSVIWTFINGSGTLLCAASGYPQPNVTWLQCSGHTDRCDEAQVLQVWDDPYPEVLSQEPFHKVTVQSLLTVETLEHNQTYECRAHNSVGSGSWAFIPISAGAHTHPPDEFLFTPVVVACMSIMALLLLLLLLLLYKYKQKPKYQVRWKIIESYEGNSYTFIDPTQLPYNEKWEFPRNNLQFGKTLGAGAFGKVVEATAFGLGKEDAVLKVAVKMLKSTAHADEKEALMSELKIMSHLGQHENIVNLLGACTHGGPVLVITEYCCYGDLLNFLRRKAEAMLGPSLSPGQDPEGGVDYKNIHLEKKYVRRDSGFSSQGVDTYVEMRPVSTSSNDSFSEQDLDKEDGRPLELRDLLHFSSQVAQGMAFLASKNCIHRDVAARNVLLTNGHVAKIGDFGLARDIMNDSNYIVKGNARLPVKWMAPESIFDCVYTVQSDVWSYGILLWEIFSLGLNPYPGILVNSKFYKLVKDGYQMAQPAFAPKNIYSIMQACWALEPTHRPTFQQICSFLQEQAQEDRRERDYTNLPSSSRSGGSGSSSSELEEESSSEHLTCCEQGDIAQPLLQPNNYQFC
Chain of Ribosomal protein S6 kinase alpha-4 (Homo sapiens) (O75676 whole entry, looked up): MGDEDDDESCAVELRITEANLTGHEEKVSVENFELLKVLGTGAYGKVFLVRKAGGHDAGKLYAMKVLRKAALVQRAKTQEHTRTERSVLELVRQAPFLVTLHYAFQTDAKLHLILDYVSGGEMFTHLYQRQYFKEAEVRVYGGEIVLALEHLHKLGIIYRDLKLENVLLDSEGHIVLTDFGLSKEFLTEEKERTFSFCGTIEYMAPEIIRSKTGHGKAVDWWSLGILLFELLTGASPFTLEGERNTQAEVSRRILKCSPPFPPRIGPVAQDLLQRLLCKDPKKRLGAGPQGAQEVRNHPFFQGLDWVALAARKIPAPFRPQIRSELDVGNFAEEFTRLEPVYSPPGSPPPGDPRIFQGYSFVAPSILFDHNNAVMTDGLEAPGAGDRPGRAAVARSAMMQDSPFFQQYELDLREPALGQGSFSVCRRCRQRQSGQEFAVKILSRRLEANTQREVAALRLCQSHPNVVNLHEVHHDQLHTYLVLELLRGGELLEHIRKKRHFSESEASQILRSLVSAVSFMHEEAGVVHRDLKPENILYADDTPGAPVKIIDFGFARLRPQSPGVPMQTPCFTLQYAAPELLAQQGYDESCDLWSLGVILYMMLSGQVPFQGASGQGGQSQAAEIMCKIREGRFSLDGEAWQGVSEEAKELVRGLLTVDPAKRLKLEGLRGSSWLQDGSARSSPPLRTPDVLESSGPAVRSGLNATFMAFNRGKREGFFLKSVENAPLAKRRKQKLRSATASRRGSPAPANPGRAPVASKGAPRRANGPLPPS

COc1cc(N(C)c2ccnc3ccc(C(F)(F)F)cc23)cc(OC)c1OC showed a % binding [1] of 92%.

CC[C@@H]1[C@H](F)C(=O)N[C@@H]1COc1nccc2cc(C(N)=O)c(OC)cc12 [ZIMLOVISERTIB] showed a % of inhibition [2] of 5.5% and a % of inhibition [3] of -18.6%.

In the case of COCC(=O)NC/C=C/c1ccc2ncnc(Nc3ccc(Oc4ccc(C)nc4)c(C)c3)c2c1 [CP-724714], the % of control [4] is reported as 82% and the % of control [5] is reported as 95%.

CN(C)C/C=C/C(=O)Nc1ccc(C(=O)N2CCCC(Nc3ncc(Cl)c(-c4c[nH]c5ccccc45)n3)C2)cc1 (stereo unspecified) showed a % of control [6] of 88%.

Compound C=CC(=O)Nc1cc(-n2c(=O)ccc3cnc4ccc(-c5ccc(NS(C)(=O)=O)cc5)cc4c32)ccc1C has a % of control ([7]; at 1 µM) of 100% and a % of control ([7]; at 10 µM) of 100%.

Compound O[C@H]1CC[C@H](Nc2ncc3nc(Nc4c(F)cc(F)cc4F)n([C@H]4CCOC4)c3n2)CC1 has a % of control [8] of 100%.

With Cc1ccc(-c2ccc3c(ccc4sc5c(c43)NC[C@@H](C)NC5=O)n2)cn1 the % of inhibition [9] was 7%.

CN(C)CCOc1ccc(-c2nc(-c3ccncc3)c(-c3ccc4c(c3)CC/C4=N\O)[nH]2)cc1 showed a % of control [10] of 88%.
